# In ChEMBL document CHEMBL4270577, “Synthesis, anticancer activity and molecular modeling studies of 1,2,4-triazole derivatives as EGFR inhibitors” (Eur J Med Chem, 2018):
# What was measured:
# SK-MEL-2 = test: Growth inhibition of human SK-MEL-2 cells at 10 uM incubated for 48 hrs by sulforhodamine B assay relative to control; assay type: functional; settings: SK-MEL-2, 48 h, read-out: GI
# HT-29 [1] = test: Growth inhibition of human HT-29 cells at 10 uM incubated for 48 hrs by sulforhodamine B assay relative to control; assay type: functional; settings: HT-29, 48 h, read-out: GI
# NCI-H460 = test: Antiproliferative activity against human H460 cells after 48 hrs by propidium iodide staining-based fluorometric analysis; assay type: functional, cell-based; settings: NCI-H460, 48 h
# UO-31 = test: Growth inhibition of human UO31 cells at 10 uM incubated for 48 hrs by sulforhodamine B assay relative to control; assay type: functional; settings: UO-31, 48 h, read-out: GI
# UACC-257 = test: Growth inhibition of human UACC257 cells at 10 uM incubated for 48 hrs by sulforhodamine B assay relative to control; assay type: functional; settings: UACC-257, 48 h, read-out: GI
# HL-60(TB) = test: Growth inhibition of human HL-60(TB) cells at 10 uM incubated for 48 hrs by sulforhodamine B assay relative to control; assay type: functional; settings: HL-60, 48 h, read-out: GI
# HT-29 [2] = test: Antiproliferative activity against human HT-29 cells after 48 hrs by propidium iodide staining-based fluorometric analysis; assay type: functional, cell-based; settings: HT-29, 48 h
# HOP-62 = test: Growth inhibition of human HOP62 cells at 10 uM incubated for 48 hrs by sulforhodamine B assay relative to control; assay type: functional; settings: HOP-62, 48 h, read-out: GI
# NCI-H522 = test: Growth inhibition of human NCI-H522 cells at 10 uM incubated for 48 hrs by sulforhodamine B assay relative to control; assay type: functional; settings: NCI-H522, 48 h, read-out: GI
# Hs-578T = test: Growth inhibition of human Hs 578T cells at 10 uM incubated for 48 hrs by sulforhodamine B assay relative to control; assay type: functional; settings: read-out: GI
# A498 = test: Growth inhibition of human A498 cells at 10 uM incubated for 48 hrs by sulforhodamine B assay relative to control; assay type: functional; settings: A498, 48 h, read-out: GI
# OVCAR-8 = test: Growth inhibition of human OVCAR8 cells at 10 uM incubated for 48 hrs by sulforhodamine B assay relative to control; assay type: functional; settings: OVCAR-8, 48 h, read-out: GI
# A549 = test: Growth inhibition of human A549/ATCC cells at 10 uM incubated for 48 hrs by sulforhodamine B assay relative to control; assay type: functional; settings: A549, 48 h, read-out: GI
# NCI-H23 = test: Growth inhibition of human NCI-H23 cells at 10 uM incubated for 48 hrs by sulforhodamine B assay relative to control; assay type: functional; settings: NCI-H23, 48 h, read-out: GI
# SNB-75 = test: Growth inhibition of human SNB75 cells at 10 uM incubated for 48 hrs by sulforhodamine B assay relative to control; assay type: functional; settings: SNB-75, 48 h, read-out: GI
# T47D = test: Growth inhibition of human T47D cells at 10 uM incubated for 48 hrs by sulforhodamine B assay relative to control; assay type: functional; settings: read-out: GI
# NCI-H226 = test: Growth inhibition of human NCI-H226 cells at 10 uM incubated for 48 hrs by sulforhodamine B assay relative to control; assay type: functional; settings: NCI-H226, 48 h, read-out: GI
# SNB-19 = test: Growth inhibition of human SNB19 cells at 10 uM incubated for 48 hrs by sulforhodamine B assay relative to control; assay type: functional; settings: SNB-19, 48 h, read-out: GI
# MOLT-4 = test: Growth inhibition of human MOLT4 cells at 10 uM incubated for 48 hrs by sulforhodamine B assay relative to control; assay type: functional; settings: MOLT-4, 48 h, read-out: GI
# SK-OV-3 = test: Growth inhibition of human SKOV3 cells at 10 uM incubated for 48 hrs by sulforhodamine B assay relative to control; assay type: functional; settings: SK-OV-3, 48 h, read-out: GI
# U-251 = test: Growth inhibition of human U251 cells at 10 uM incubated for 48 hrs by sulforhodamine B assay relative to control; assay type: functional; settings: U-251, 48 h, read-out: GI
# CCRF-CEM = test: Growth inhibition of human CCRF-CEM cells at 10 uM incubated for 48 hrs by sulforhodamine B assay relative to control; assay type: functional; settings: read-out: GI
# HOP-92 = test: Growth inhibition of human HOP92 cells at 10 uM incubated for 48 hrs by sulforhodamine B assay relative to control; assay type: functional; settings: HOP-92, 48 h, read-out: GI
# MIA PaCa-2 = test: Antiproliferative activity against human MIAPaCa2 cells after 48 hrs by propidium iodide staining-based fluorometric analysis; assay type: functional, cell-based; settings: MIA PaCa-2, 48 h
# PANC-1 = test: Antiproliferative activity against human PANC1 cells after 48 hrs by propidium iodide staining-based fluorometric analysis; assay type: functional, cell-based; settings: PANC-1, 48 h
# SR = test: Growth inhibition of human SR cells at 10 uM incubated for 48 hrs by sulforhodamine B assay relative to control; assay type: functional; settings: read-out: GI
# PC-3 = test: Growth inhibition of human PC3 cells at 10 uM incubated for 48 hrs by sulforhodamine B assay relative to control; assay type: functional; settings: PC-3, 48 h, read-out: GI
# TK-10 = test: Growth inhibition of human TK10 cells at 10 uM incubated for 48 hrs by sulforhodamine B assay relative to control; assay type: functional; settings: TK-10, 48 h, read-out: GI
# MCF7 = test: Growth inhibition of human MCF7 cells at 10 uM incubated for 48 hrs by sulforhodamine B assay relative to control; assay type: functional; settings: MCF7, 48 h, read-out: GI
# HCT-116 = test: Growth inhibition of human HCT116 cells at 10 uM incubated for 48 hrs by sulforhodamine B assay relative to control; assay type: functional; settings: HCT-116, 48 h, read-out: GI
# UACC-62 = test: Growth inhibition of human UACC62 cells at 10 uM incubated for 48 hrs by sulforhodamine B assay relative to control; assay type: functional; settings: UACC-62, 48 h, read-out: GI
# RPMI-8226 = test: Growth inhibition of human RPMI8226 cells at 10 uM incubated for 48 hrs by sulforhodamine B assay relative to control; assay type: functional; settings: RPMI-8226, 48 h, read-out: GI
# NCI-H322M = test: Growth inhibition of human NCI-H322M cells at 10 uM incubated for 48 hrs by sulforhodamine B assay relative to control; assay type: functional; settings: read-out: GI
smiles,measurement,setting,value
C/C(=N/O)c1ccc(NC(=O)Cn2nc(-c3ccccc3)nc2N)cc1,inhibition of growth at 10 µM,SK-MEL-2,5.32%
same,inhibition of growth at 10 µM,HT-29 [1],13.9%
same,IC50,NCI-H460,4.4 µM
same,inhibition of growth at 10 µM,UO-31,15.4%
same,inhibition of growth at 10 µM,UACC-257,34%
same,inhibition of growth at 10 µM,HL-60(TB),7.41%
same,IC50,HT-29 [2],4.7 µM
same,inhibition of growth at 10 µM,HOP-62,17.7%
same,inhibition of growth at 10 µM,NCI-H522,30%
same,inhibition of growth at 10 µM,Hs-578T,7.41%
same,inhibition of growth at 10 µM,A498,19.6%
same,inhibition of growth at 10 µM,OVCAR-8,15.3%
same,inhibition of growth at 10 µM,A549,32%
same,inhibition of growth at 10 µM,NCI-H23,3.98%
same,inhibition of growth at 10 µM,SNB-75,22.5%
same,inhibition of growth at 10 µM,T47D,23%
same,inhibition of growth at 10 µM,NCI-H226,3.91%
same,inhibition of growth at 10 µM,SNB-19,3.56%
same,inhibition of growth at 10 µM,MOLT-4,11.5%
same,inhibition of growth at 10 µM,SK-OV-3,15.2%
same,inhibition of growth at 10 µM,U-251,8.76%
same,inhibition of growth at 10 µM,CCRF-CEM,6.77%
same,inhibition of growth at 10 µM,HOP-92,5.82%
same,IC50,MIA PaCa-2,5.7 µM
same,IC50,PANC-1,8.7 µM
same,inhibition of growth at 10 µM,SR,5.58%
same,inhibition of growth at 10 µM,PC-3,15.8%
CC(=O)c1ccc(NC(=O)Cn2nc(C(F)(F)F)nc2N)cc1,inhibition of growth at 10 µM,HT-29 [1],16%
same,IC50,NCI-H460,3.7 µM
same,inhibition of growth at 10 µM,UO-31,13.7%
same,inhibition of growth at 10 µM,UACC-257,14.6%
same,inhibition of growth at 10 µM,HL-60(TB),15.4%
same,IC50,HT-29 [2],3.8 µM
same,inhibition of growth at 10 µM,HOP-62,9.94%
same,inhibition of growth at 10 µM,NCI-H522,21%
same,inhibition of growth at 10 µM,Hs-578T,7.42%
same,inhibition of growth at 10 µM,OVCAR-8,13.3%
same,inhibition of growth at 10 µM,A549,20%
same,inhibition of growth at 10 µM,SNB-75,12.5%
same,inhibition of growth at 10 µM,T47D,10.8%
same,inhibition of growth at 10 µM,NCI-H226,8.52%
same,inhibition of growth at 10 µM,SNB-19,4.37%
same,inhibition of growth at 10 µM,MOLT-4,7.46%
same,inhibition of growth at 10 µM,SK-OV-3,7.02%
same,inhibition of growth at 10 µM,TK-10,5.17%
same,inhibition of growth at 10 µM,CCRF-CEM,6.78%
same,IC50,MIA PaCa-2,4.7 µM
same,IC50,PANC-1,4.5 µM
same,inhibition of growth at 10 µM,PC-3,10.6%
CC(=O)c1ccc(NC(=O)Cn2nc(-c3ccc(Cl)cc3)nc2N)cc1,inhibition of growth at 10 µM,SK-MEL-2,4.03%
same,inhibition of growth at 10 µM,MCF7,5.48%
same,inhibition of growth at 10 µM,HT-29 [1],10.4%
same,IC50,NCI-H460,6.8 µM
same,inhibition of growth at 10 µM,HCT-116,4.68%
same,inhibition of growth at 10 µM,UO-31,20.6%
same,inhibition of growth at 10 µM,UACC-257,19.8%
same,inhibition of growth at 10 µM,HL-60(TB),7.98%
same,IC50,HT-29 [2],6.9 µM
same,inhibition of growth at 10 µM,HOP-62,15.1%
same,inhibition of growth at 10 µM,UACC-62,6.29%
same,inhibition of growth at 10 µM,NCI-H522,28%
same,inhibition of growth at 10 µM,Hs-578T,6.29%
same,inhibition of growth at 10 µM,OVCAR-8,15.4%
same,inhibition of growth at 10 µM,A549,22%
same,inhibition of growth at 10 µM,RPMI-8226,3.17%
same,inhibition of growth at 10 µM,NCI-H322M,5.69%
same,inhibition of growth at 10 µM,SNB-75,6.47%
same,inhibition of growth at 10 µM,T47D,21.6%
same,inhibition of growth at 10 µM,SNB-19,8.53%
same,inhibition of growth at 10 µM,MOLT-4,16.5%
same,inhibition of growth at 10 µM,SK-OV-3,22%
same,inhibition of growth at 10 µM,U-251,5.94%
same,inhibition of growth at 10 µM,CCRF-CEM,19.9%
same,inhibition of growth at 10 µM,HOP-92,7.76%
same,IC50,MIA PaCa-2,8.1 µM
same,IC50,PANC-1,7.4 µM
same,inhibition of growth at 10 µM,SR,7.32%
same,inhibition of growth at 10 µM,PC-3,20.3%
CC(=O)c1ccc(NC(=O)Cn2nc(-c3ccccc3)nc2N)cc1,IC50,NCI-H460,9.8 µM
same,IC50,HT-29 [2],8.4 µM
same,IC50,MIA PaCa-2,8.5 µM
same,IC50,PANC-1,9.5 µM
C/C(=N/O)c1ccc(NC(=O)Cn2nc(C(F)(F)F)nc2N)cc1,inhibition of growth at 10 µM,SK-MEL-2,13.1%
same,inhibition of growth at 10 µM,HT-29 [1],11.9%
same,IC50,NCI-H460,5.2 µM
same,inhibition of growth at 10 µM,HCT-116,8.65%
same,inhibition of growth at 10 µM,UO-31,15.1%
same,inhibition of growth at 10 µM,UACC-257,25.6%
same,inhibition of growth at 10 µM,HL-60(TB),26%
same,IC50,HT-29 [2],5.4 µM
same,inhibition of growth at 10 µM,HOP-62,9.21%
same,inhibition of growth at 10 µM,UACC-62,5.39%
same,inhibition of growth at 10 µM,NCI-H522,31%
same,inhibition of growth at 10 µM,OVCAR-8,20.5%
same,inhibition of growth at 10 µM,A549,29%
same,inhibition of growth at 10 µM,NCI-H23,4.46%
same,inhibition of growth at 10 µM,RPMI-8226,4.65%
same,inhibition of growth at 10 µM,NCI-H322M,4.32%
same,inhibition of growth at 10 µM,SNB-75,14.8%
same,inhibition of growth at 10 µM,NCI-H226,12.9%
same,inhibition of growth at 10 µM,MOLT-4,23.3%
same,inhibition of growth at 10 µM,SK-OV-3,3.53%
same,inhibition of growth at 10 µM,U-251,11.3%
same,inhibition of growth at 10 µM,TK-10,14.3%
same,inhibition of growth at 10 µM,CCRF-CEM,10.5%
same,IC50,MIA PaCa-2,4.9 µM
same,IC50,PANC-1,3.5 µM
same,inhibition of growth at 10 µM,SR,15.9%
same,inhibition of growth at 10 µM,PC-3,20.3%
